# According to patent US20190298740A1, “METHODS AND COMPOSITIONS FOR TREATING HALLUCINATIONS AND CONDITIONS RELATED TO THE SAME” (Enterin, Inc., priority 2018, published 2019):
# “And” between values parts separate entries of the source, which are not always exact repeats. Identical values can stand only once.
# What was measured:
# [1] = test system: patients with PD and constipation; assay: Bowel function (prokinetic response, stool diary indices), Phase 2 trial; type: in vivo, human; conditions: for Cumulative prokinetic response rate (CSBM within 24 hours of dosing): Stage 1, single dose; for Prokinetic response rate (CSBM within 24 hours of dosing on at least 2 of 3 days): Stage 2, daily dosing; for CSBM, weekly average: baseline 1.2 (0.90); for PAC-SYM: baseline 1.3 (0.45); for SBM, weekly average: baseline 2.6 (1.45)
# Method: Following successful screening, all subjects underwent a 14-day run-in period where the degree of constipation was assessed through a validated daily log (Zinsmeister et al. 2013) establishing baseline CSBMs/week. Subjects with an average of <3 CSBMs/week proceeded to dosing.
# Tolerability limits included diarrhea or vomiting.
# In Stage 2, 34 patients were evaluated.
# The primary efficacy outcome variable was whether or not a subject was a “success” or “failure”. This is an endpoint based on subject diary entries for the “fixed dose” period prior to the endpoint assessment defined as average complete stool frequency increase by 1 or more over baseline, or 3 or more complete spontaneous stools/week. The subject was deemed a “success” if s/he met one or more of the criteria listed above, otherwise the subject was deemed a “failure”. The primary analysis was based on all subjects with a baseline assessment and an assessment at the end of the “fixed-dose” period and was a comparison of the proportion of successes with 0.10 (the null hypothesis corresponding to no treatment effect).
# [2] = test system: patients with PD; assay: CNS symptoms in Stage 2 (UPDRS, MMSE, PDHQ, BDI-II, direct questioning); type: in vivo, human; conditions: for PDHQ / BDI-II / UPDRS Part 2 (Daily living) / MMSE / UPDRS Part 3 (Motor): mean (SD); for PDHQ: baseline 1.3 (2.99); for BDI-II: baseline 10.9 (7.12); for UPDRS Part 2 (Daily living): baseline 14.9 (8.11); for MMSE: baseline 28.4 (1.75); for UPDRS Part 3 (Motor): baseline 35.3 (14.35)
# Excerpt: (§1) Exploratory end-points, in addition to constipation, included for example, (i) depression assessed using the Beck Depression Inventory (BDI-II) (Steer et al. 2000) and Unified Parkinson's Disease Rating Scale (UPDRS); (ii) cognition assessed using the Mini Mental State Examination (MMSE) (Palsteia et al. 2018), Unified Parkinson's Disease Rating Scale (UPDRS), and Trail Making Test (TMT); (iii) sleep and REM-behavior disorder (RBD) using a daily sleep diary, I-Button Temperature Assessment, a REM sleep behavior disorder (RBD) questionnaire (RBDQ) (Stiasny-Kolster et al. 2007), and the UPDRS; (iv) hallucinations assessed using the PD hallucinations questionnaire (PDHQ) (Papapetropoulos et al. 2008), the UPDRS, and direct questioning; (v) fatigue using the Parkinson's Disease Fatigue Scale (PFS-16) and the UPDRS; (vi) motor functions using the UPDRS; and (vii) non-motor functions using the UPDRS.
# Assessments were made at baseline and at the end of the fixed dose and washout periods. Circadian system status was evaluated by continuously monitoring wrist skin temperature (Thermochron iButton DS1921H; Maxim, Dallas) following published procedures (Sarabia et al. 2008).
# An exploratory analysis was done with respect to the sleep data, the body temperature data, mood, fatigue, hallucinations, cognition and other motor and non-motor symptoms of PD. Continuous measurements within a subject were compared with a paired t-test and continuous measurements between subject groups were compared with a two-group t-test. Categorical data were compared with a chi-squared test or a Fisher's exact test if the expected cell counts are too small for a chi-squared test.
# CNS symptoms were evaluated at baseline and at the end of the fixed dose period and the wash-out period (Table 13). Total UPDRS score was 64.4 at baseline, 60.6 at the end of the fixed dose period and 55.7 at the end of the wash-out period (p=0.002); similarly, the motor component of the UPDRS improved from 35.3 at baseline to 33.3 at the end of fixed dose to 30.2 at the end of wash-out (p=0.006). MMSE improved from 28.4 at baseline to 28.7 during treatment and to 29.3 during wash-out (p=0.0006). […] PDHQ improved from 1.3 at baseline to 1.8 during treatment and 0.9 during wash-out (p=0.03). Hallucinations were reported by 5 patients at baseline and delusions in 1 patient. […] The frequency of arm or leg thrashing reported in the sleep diary diminished progressively from 2.2 episodes/week at baseline to 0 at maximal dose. […] Unlike stool-related indices, the improvement in many CNS symptoms persisted during wash-out.
# [3] = test system: patients with PD; assay: Sleep diary: total sleep time and REM-behavior disorder; type: in vivo, human
# Excerpt: (5) Sleep Diary (participants completed a sleep diary on a daily basis throughout the study. The diaries included time into bed and estimated time to sleep as well as wake time and duration during the night);
# as §1
# [4] = Preclinical oral dosing studies in dogs; conditions: dog, in vivo
# [5] = test system: C. elegans αS model; conditions: in vivo, C. elegans model of PD; cited from earlier work
# [6] = Stage 2, n = 34, fixed dose, mean (SD)
# [7] = Stage 2, n = 34, fixed dose, listed as Squalamine (ENT-01)
smiles,measurement,setting,value
"CC(C)[C@@H](CC[C@@H](C)[C@H]1CC[C@H]2[C@@H]3[C@H](O)C[C@H]4C[C@@H](NCCCNCCCCN)CC[C@]4(C)[C@H]3CC[C@]12C)OS(=O)(=O)O (single isomer, unassigned) [squalamine (ENT-01)]",Patients responding within the effective dose range,[1]; 75 mg to 250 mg,85%
same,Cumulative prokinetic response rate (CSBM within 24 hours of dosing),[1]; 25 mg,25%
same,Cumulative prokinetic response rate (CSBM within 24 hours of dosing),[1]; 200 mg (maximum),80%
same,Median efficacious dose,[1]; Stage 2,100 mg
same,Prokinetic response rate (CSBM within 24 hours of dosing on at least 2 of 3 days),[1]; 75 mg,26%
same,Prokinetic response rate (CSBM within 24 hours of dosing on at least 2 of 3 days),[1]; 250 mg,85.3%
same,"CSBM, weekly average",[1]; [6],3.8 /week and 3.8 (2.4) /week
same,PAC-SYM,[1]; [6],1.1 (0.49)
same,"Suppository use / rescue medication, weekly average","[1]; Stage 2, n = 34, fixed dose, mean (SD), baseline 1.8 (1.92)",0.3 /week
same,"SBM, weekly average",[1]; [6],4.5 /week
same,"CSBM, weekly average","[1]; Stage 2, wash-out, mean (SD)",1.8 (1.19) /week
same,PAC-SYM,"[1]; Stage 2, wash-out, mean (SD)",1.1 (0.60)
same,PAC-QOL,"[1]; Stage 2, wash-out, mean (SD), baseline 1.4 (0.49)",1.2 (0.63)
same,"Rescue meds, weekly average","[1]; Stage 2, wash-out, mean (SD), baseline 1.8 (1.92)",1.0 (1.40) /week
same,"SBM, weekly average","[1]; Stage 2, wash-out, mean (SD)",3.2 (1.80) /week
same,Stool consistency (Bristol stool scale 1-7),"[1]; Stage 2, wash-out, mean (SD), baseline 2.7 (1.20)",2.8 (1.39)
same,Ease of passage (Ease of evacuation scale 1-7),"[1]; Stage 2, wash-out, mean (SD), baseline 3.2 (0.73)",3.3 (0.81)
same,"CSBM frequency, randomized cohort","[1]; group later randomized to placebo (n = 9), fixed dose period on drug, baseline 1.6",3.3 CSBM/week
same,"CSBM frequency, randomized cohort","[1]; group randomized to treatment (n = 6), fixed dose period, baseline 0.8",3.2 CSBM/week
same,"CSBM frequency, randomized cohort","[1]; group randomized to treatment (n = 6), randomized period 4-6 days, baseline 0.8",2.4 CSBM/week
same,"CSBM frequency, randomized cohort","[1]; group randomized to treatment (n = 6), washout, baseline 0.8",0.9 CSBM/week
same,Mean dose required for a bowel response,[1]; patients with baseline constipation of <1 CSBM/week,192 mg
same,Mean dose required for a bowel response,[1]; patients with baseline ≥1 CSBM/week,120 mg
same,PDHQ,"[2]; Stage 2, n = 34, fixed dose",1.8
same,PDHQ,[2]; [7],1.8 (3.34)
same,BDI-II,"[2]; Stage 2, n = 34, fixed dose",9.9
same,UPDRS Part 2 (Daily living),"[2]; Stage 2, n = 34, fixed dose",14.7 (9.02)
same,MMSE,"[2]; Stage 2, n = 34, fixed dose",28.7
same,UPDRS Part 3 (Motor),"[2]; Stage 2, n = 34, fixed dose",33.3
same,UPDRS Part 3 (Motor),[2]; [7],33.3 (15.20)
same,PDHQ,"[2]; Stage 2, n = 34, wash-out",0.9
same,BDI-II,"[2]; Stage 2, n = 34, wash-out",8.7
same,UPDRS Part 2 (Daily living),"[2]; Stage 2, n = 34, wash-out",14.1 (8.21)
same,MMSE,"[2]; Stage 2, n = 34, wash-out",29.3
same,UPDRS Part 3 (Motor),"[2]; Stage 2, n = 34, wash-out",30.2
same,UPDRS Part 3 (Motor),"[2]; Stage 2, n = 34, wash-out, listed as Squalamine (ENT-01)",30.2 (13.23)
same,Dose at which the hallucinations disappeared,"[2]; one patient, colonic prokinetic dose 175 mg not yet reached",100 mg
same,Dose beyond which total sleep time was consistently higher than baseline,[3]; Stage 2,> 125 mg
same,Total sleep time,"[3]; at 250 mg, baseline 7.1 hours",8.4 h
same,Frequency of arm or leg thrashing (sleep diary),"[3]; at maximal dose, baseline 2.2",0 episodes/week
same,bioavailability,[4],~0.1%
same,Formation of aggregates of αS,[5],inhibits the formation of αS aggregates
